# Measured values reported in patent US7829563B2, “Aminoamides as orexin antagonists” (Hoffmann-La Roche Inc., priority 2007, dated 2010).
# Counter-ions that a name gives are not always drawn.
# Molecular target: T1, human orexin-2 (hOX2) receptors (Homo sapiens, UniProt O43614)
# T1 construct: expressed in transfected cells
# T1 sequence (O43614 1-444): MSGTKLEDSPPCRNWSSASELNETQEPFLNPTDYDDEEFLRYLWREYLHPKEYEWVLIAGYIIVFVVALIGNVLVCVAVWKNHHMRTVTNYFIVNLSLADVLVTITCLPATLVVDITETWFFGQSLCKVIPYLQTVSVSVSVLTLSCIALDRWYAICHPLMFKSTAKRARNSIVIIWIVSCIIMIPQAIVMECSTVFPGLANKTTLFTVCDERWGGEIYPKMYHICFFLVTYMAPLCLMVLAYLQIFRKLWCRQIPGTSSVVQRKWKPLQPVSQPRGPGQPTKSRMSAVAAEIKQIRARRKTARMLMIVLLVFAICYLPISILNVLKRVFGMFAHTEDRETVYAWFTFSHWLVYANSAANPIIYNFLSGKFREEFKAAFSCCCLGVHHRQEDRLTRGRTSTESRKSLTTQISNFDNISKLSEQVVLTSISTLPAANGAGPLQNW
# Test: Intracellular Ca2+ mobilization assay (FLIPR), antagonism of orexin-A
# Assay type: cell-based
# Settings: CHO(dHFr−) cells stably expressing hOX2; orexin-A at EC80 as agonist; Kb=IC50/(1+[A]/EC50); read-out: Kb (μM) OX2R (human)
# In short: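 Fluo-4-loaded CHO(dHFr−) cells stably expressing hOX2 were pre-incubated 25 min at 37° C with antagonist (11 concentrations, 0.0001-10 μM), then stimulated with orexin-A at daily-determined EC80. Peak FLIPR fluorescence was fitted to the Hill equation for IC50, and Kb was derived as IC50/(1+[A]/EC50).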
row,SMILES,Kb [µM]
1,"Cc1cc([C@H](CCc2ccc(C(F)(F)F)nc2)N[C@@H](C(=O)NCCO)c2ccccc2)ccc1F (racemic) [Example 356, (R,S)-2-[(S,R)-1-(4-Fluoro-3-methyl-phenyl)-3-(6-trifluoromethyl-pyridin-3-yl)-propylamino]-N-(2-hydroxy-ethyl)-2-phenyl-acetamide]",0.0044
2,"CNC(=O)[C@H](NC(CCc1ccc(C(F)(F)F)cc1)c1ccc(OC)c(OC)c1)c1ccccc1 (single isomer, unassigned) [Example 6, (R)-2-[(S or R)-1-(3,4-Dimethoxy-phenyl)-3-(4-trifluoromethyl-phenyl)-propylamino]-N-methyl-2-phenyl-acetamide]",0.0017
3,"CNC(=O)C(NC(CCc1ccc(C(F)(F)F)cc1)c1cc(C(C)C)no1)c1ccccc1 (stereo not shown) [Example 92, 2-[1-(3-Isopropyl-isoxazol-5-yl)-3-(4-trifluoromethyl-phenyl)-propylamino]-N-methyl-2-phenyl-acetamide]",0.007
4,"CNC(=O)[C@H](N[C@@H](CCc1ccc(Cl)cc1)c1ccc(F)c(C)c1)c1ccccc1 [Example 392, (R)-2-[(S)-3-(4-Chloro-phenyl)-1-(4-fluoro-3-methyl-phenyl)-propylamino]-N-methyl-2-phenyl-acetamide]",0.0059
5,"CNC(=O)[C@H](N[C@@H](CCc1ccc(Cl)cc1)c1ccc(OC)c(OC)c1)c1ccccc1 [Example 163, (R)-2-[(S)-3-(4-Chloro-phenyl)-1-(3,4-dimethoxy-phenyl)-propylamino]-N-methyl-2-phenyl-acetamide]",0.0011
6,"CNC(=O)[C@H](N[C@@H](CCc1ccc(Cl)cn1)c1ccc(OC(F)F)c(OC(F)F)c1)c1ccccc1 (racemic) [Example 306, (S,R)-2-[(R,S)-1-(3,4-Bis-difluoromethoxy-phenyl)-3-(5-chloro-pyridin-2-yl)-propylamino]-N-methyl-2-phenyl-acetamide]",0.0063
7,"CNC(=O)[C@H](N[C@@H](CCc1ccc(C(F)(F)F)nc1)c1ccc(OC)c(OC)c1)c1ccccc1 [Example 200, (R)-2-[(S)-1-(3,4-Dimethoxy-phenyl)-3-(6-trifluoromethyl-pyridin-3-yl)-propylamino]-N-methyl-2-phenyl-acetamide hydrochloride]",0.0028
8,"CNC(=O)[C@H](N[C@@H](CCc1ccc(C(F)(F)F)nc1)c1ccc(OC(F)F)c(OC)c1)c1ccc(Cl)cc1 (racemic) [Example 234, (S,R)-2-(4-Chloro-phenyl)-2-[(R,S)-1-(4-difluoromethoxy-3-methoxy-phenyl)-3-(6-trifluoromethyl-pyridin-3-yl)-propylamino]-N-methyl-acetamide]",0.013
9,"CNC(=O)[C@H](N[C@@H](CCc1ccc(C(F)(F)F)nc1)c1ccc(F)c(OC)c1)c1ccc(F)cc1 (racemic) [Example 240, (S,R)-2-[(R,S)-1-(4-Fluoro-3-methoxy-phenyl)-3-(6-trifluoromethyl-pyridin-3-yl)-propylamino]-2-(4-fluoro-phenyl)-N-methyl-acetamide]",0.0107
10,"CNC(=O)[C@H](N[C@@H](CCc1ccc(C)cc1)c1ccc(F)c(C)c1)c1ccccc1 (racemic) [Example 365, (R,S)-2-[(S,R)-1-(4-Fluoro-3-methyl-phenyl)-3-p-tolyl-propylamino]-N-methyl-2-phenyl-acetamide]",0.0124
11,"CNC(=O)C(NC(CCc1ccc(C)nc1)c1ccc(F)c(C)c1)c1ccccc1 (mixture of isomers) [Example 258, 2-[1-(4-Fluoro-3-methyl-phenyl)-3-(6-methyl-pyridin-3-yl)-propylamino]-N-methyl-2-phenyl-acetamide]",0.0172
12,"CNC(=O)[C@H](N[C@@H](CCc1cnc(Cl)cn1)c1ccc(OC(F)F)c(OC(F)F)c1)c1ccccc1 (racemic) [Example 297, (S,R)-2-[(R,S)-1-(3,4-Bis-difluoromethoxy-phenyl)-3-(5-chloro-pyrazin-2-yl)-propylamino]-N-methyl-2-phenyl-acetamide]",0.0153
13,"CNC(=O)[C@H](N[C@@H](CCc1ccc(C(F)(F)F)cc1)c1cc(C)on1)c1ccccc1 (racemic) [Example 302, (S,R)—N-Methyl-2-[(R,S)-1-(5-methyl-isoxazol-3-yl)-3-(4-trifluoromethyl-phenyl)-propylamino]-2-phenyl-acetamide]",0.0161
14,"CNC(=O)[C@H](N[C@H](CCc1ccc(C(F)(F)F)nc1)c1cccc(OC(F)(F)F)c1)c1ccccc1 (racemic) [Example 226, (S,R)—N-Methyl-2-phenyl-2-[(S,R)-1-(3-trifluoromethoxy-phenyl)-3-(6-trifluoromethyl-pyridin-3-yl)-propylamino]-acetamide]",0.0195
15,"CNC(=O)[C@H](N[C@@H](CCc1ccc(Cl)cc1)c1ccc(OC)c(OC)c1Cl)c1ccccc1 (racemic) [Example 40, (S,R)-2-[(R,S)-1-(2-Chloro-3,4-dimethoxy-phenyl)-3-(4-chloro-phenyl)-propylamino]-N-methyl-2-phenyl-acetamide]",0.0068
16,"CNC(=O)[C@H](N[C@@H](CCc1ccc(C)nc1)c1ccc(F)c(C)c1)c1ccccc1 [Example 262, (R)-2-[(S)-1-(4-Fluoro-3-methyl-phenyl)-3-(6-methyl-pyridin-3-yl)-propylamino]-N-methyl-2-phenyl-acetamide]",0.0173
17,"CNC(=O)[C@H](N[C@H](CCc1ccc(C(F)(F)F)nc1)c1ccc(C)c(OC)c1)c1ccccc1 (racemic) [Example 252, (S,R)-2-[(S,R)-1-(3-Methoxy-4-methyl-phenyl)-3-(6-trifluoromethyl-pyridin-3-yl)-propylamino]-N-methyl-2-phenyl-acetamide]",0.0024
18,"CNC(=O)C(NC(CCc1ccc(C(F)(F)F)cc1)c1sc(C)nc1C)c1ccc(F)cc1 (stereo not shown) [Example 80, 2-[1-(2,4-Dimethyl-thiazol-5-yl)-3-(4-trifluoromethyl-phenyl)-propylamino]-2-(4-fluoro-phenyl)-N-methyl-acetamide]",0.0192
19,"CNC(=O)[C@H](N[C@@H](CCc1ccc(C)cc1)c1ccc(F)c(C)c1)c1ccccc1 [Example 397, (R)-2-[(S)-1-(4-Fluoro-3-methyl-phenyl)-3-p-tolyl-propylamino]-N-methyl-2-phenyl-acetamide]",0.0042
20,"CNC(=O)[C@H](N[C@@H](CCc1ccc(C(F)(F)F)nc1)c1ccc(Cl)c(C)c1)c1ccccc1 (racemic) [Example 244, (S,R)-2-[(R,S)-1-(4-Chloro-3-methyl-phenyl)-3-(6-trifluoromethyl-pyridin-3-yl)-propylamino]-N-methyl-2-phenyl-acetamide]",0.0145
21,"CNC(=O)[C@H](N[C@@H](CCc1ccc(C(F)(F)F)nc1)c1ccc2c(c1)CCCC2)c1ccc(F)cc1 (racemic) [Example 57, (S,R)-2-(4-Fluoro-phenyl)-N-methyl-2-[(R,S)-1-(5,6,7,8-tetrahydro-naphthalen-2-yl)-3-(6-trifluoromethyl-pyridin-3-yl)-propylamino]-acetamide]",0.0093
22,"CNC(=O)[C@H](N[C@@H](CCc1ccc(Cl)cc1)c1ccc2c(c1)CCO2)c1ccccc1 [Example 96, (R)-2-[(S)-3-(4-Chloro-phenyl)-1-(2,3-dihydro-benzofuran-5-yl)-propylamino]-N-methyl-2-phenyl-acetamide]",0.0018
23,"CNC(=O)[C@H](N[C@@H](CCc1ccc(Cl)nc1)c1ccc(OC(F)F)c(OC(F)F)c1)c1ccccc1 (racemic) [Example 296, (S,R)-2-[(R,S)-1-(3,4-Bis-difluoromethoxy-phenyl)-3-(6-chloro-pyridin-3-yl)-propylamino]-N-methyl-2-phenyl-acetamide]",0.013
24,"CNC(=O)[C@H](N[C@@H](CCc1ccc(C(F)(F)F)nc1)c1ccc(F)c(C)c1)c1ccccc1 (racemic) [Example 228, (S,R)-2-[(R,S)-1-(4-Fluoro-3-methyl-phenyl)-3-(6-trifluoromethyl-pyridin-3-yl)-propylamino]-N-methyl-2-phenyl-acetamide]",0.0035
25,"CNC(=O)[C@H](N[C@@H](CCc1ccc(C(F)(F)F)nc1)c1ccc(C)c(Cl)c1)c1ccccc1 (racemic) [Example 238, (S,R)-2-[(R,S)-1-(3-Chloro-4-methyl-phenyl)-3-(6-trifluoromethyl-pyridin-3-yl)-propylamino]-N-methyl-2-phenyl-acetamide]",0.0196
26,"CNC(=O)[C@H](N[C@H](CCc1ccc(C(F)(F)F)nc1)c1ccc(Cl)c(C)c1)c1ccccc1 (racemic) [Example 243, (S,R)-2-[(S,R)-1-(4-Chloro-3-methyl-phenyl)-3-(6-trifluoromethyl-pyridin-3-yl)-propylamino]-N-methyl-2-phenyl-acetamide]",0.0122
27,"CNC(=O)[C@H](N[C@@H](CCc1ccc(C(F)(F)F)cc1)c1sc(C)nc1C)c1ccc(F)cc1 [Example 116, (R)-2-[(S)-1-(2,4-Dimethyl-thiazol-5-yl)-3-(4-trifluoromethyl-phenyl)-propylamino]-2-(4-fluoro-phenyl)-N-methyl-acetamide]",0.0061
28,"CNC(=O)[C@H](NC(CCc1ccc(C(F)(F)F)cc1)c1ccc(OC)c(OC)c1)c1ccccc1 (single isomer, unassigned) [Example 7, (R)-2-[(S or R)-1-(3,4-Dimethoxy-phenyl)-3-(4-trifluoromethyl-phenyl)-propylamino]-N-methyl-2-phenyl-acetamide]",0.0142
